In the NIST ThermoML archive (doi:10.1016/j.jct.2018.01.003):
Numbers after ± are expanded uncertainties.

Test: activity coefficient (dimensionless); of the first substance listed, at infinite dilution; xn = mol fraction of the nth substance listed
Details: 101.33 kPa, Liquid, Chromatography, x1 = 0

| activity coefficient (328.15 K) | activity coefficient (338.15 K) | activity coefficient (348.15 K) | activity coefficient (358.15 K) | activity coefficient (368.15 K) | Structure (SMILES) |
| --- | --- | --- | --- | --- | --- |
| 0.424 ± 0.035 | 0.435 ± 0.035 | 0.445 ± 0.036 | 0.455 ± 0.036 | 0.464 ± 0.036 | CCCCO [butan-1-ol] + CCCCCCCCCCCCCC[P+](CCCCCC)(CCCCCC)CCCCCC.N#CC(=C=[N-])C#N |
| 1.21 ± 0.08 | 1.22 ± 0.08 | 1.23 ± 0.08 | 1.25 ± 0.08 | 1.26 ± 0.08 | C1CCCCCC1 [cycloheptane] + CCCCCCCCCCCCCC[P+](CCCCCC)(CCCCCC)CCCCCC.N#CC(=C=[N-])C#N |
| 0.462 ± 0.036 | 0.471 ± 0.037 | 0.477 ± 0.037 | 0.485 ± 0.037 | 0.49 ± 0.037 | CCO [ethanol] + CCCCCCCCCCCCCC[P+](CCCCCC)(CCCCCC)CCCCCC.N#CC(=C=[N-])C#N |
| 1.25 ± 0.08 | 1.27 ± 0.08 | 1.3 ± 0.08 | 1.32 ± 0.09 | 1.34 ± 0.09 | C=CCCC [1-pentene] + CCCCCCCCCCCCCC[P+](CCCCCC)(CCCCCC)CCCCCC.N#CC(=C=[N-])C#N |
| 1.92 ± 0.13 | 1.77 ± 0.12 | 1.65 ± 0.11 | 1.54 ± 0.1 | 1.44 ± 0.09 | O [water] + CCCCCCCCCCCCCC[P+](CCCCCC)(CCCCCC)CCCCCC.N#CC(=C=[N-])C#N |
| 0.457 ± 0.036 | 0.468 ± 0.037 | 0.476 ± 0.037 | 0.486 ± 0.037 | 0.495 ± 0.038 | CCC(C)O (stereo not drawn) [butan-2-ol] + CCCCCCCCCCCCCC[P+](CCCCCC)(CCCCCC)CCCCCC.N#CC(=C=[N-])C#N |
| 1.32 ± 0.09 | 1.33 ± 0.09 | 1.35 ± 0.09 | 1.36 ± 0.09 | 1.37 ± 0.09 | C1CCCCCCC1 [cyclooctane] + CCCCCCCCCCCCCC[P+](CCCCCC)(CCCCCC)CCCCCC.N#CC(=C=[N-])C#N |
| 1.3 ± 0.08 | 1.35 ± 0.09 | 1.39 ± 0.09 | 1.43 ± 0.09 | 1.47 ± 0.1 | CCCOCCC [dipropyl ether] + CCCCCCCCCCCCCC[P+](CCCCCC)(CCCCCC)CCCCCC.N#CC(=C=[N-])C#N |
| 0.833 ± 0.054 | 0.875 ± 0.056 | 0.914 ± 0.058 | 0.952 ± 0.06 | 0.987 ± 0.062 | C#CCCCC [1-hexyne] + CCCCCCCCCCCCCC[P+](CCCCCC)(CCCCCC)CCCCCC.N#CC(=C=[N-])C#N |
| 2.32 ± 0.16 | 2.37 ± 0.16 | 2.41 ± 0.16 | 2.45 ± 0.17 | 2.49 ± 0.17 | C=CCCCCCCCC [1-decene] + CCCCCCCCCCCCCC[P+](CCCCCC)(CCCCCC)CCCCCC.N#CC(=C=[N-])C#N |
| 0.496 ± 0.038 | 0.52 ± 0.039 | 0.544 ± 0.04 | 0.57 ± 0.041 | 0.593 ± 0.042 | C=Cc1ccccc1 [styrene] + CCCCCCCCCCCCCC[P+](CCCCCC)(CCCCCC)CCCCCC.N#CC(=C=[N-])C#N |
| 0.65 ± 0.044 | 0.669 ± 0.045 | 0.685 ± 0.046 | 0.704 ± 0.047 | 0.721 ± 0.048 | COC(C)=O [methyl ethanoate] + CCCCCCCCCCCCCC[P+](CCCCCC)(CCCCCC)CCCCCC.N#CC(=C=[N-])C#N |
| 0.459 ± 0.036 | 0.481 ± 0.037 | 0.5 ± 0.038 | 0.519 ± 0.039 | 0.536 ± 0.039 | c1ccccc1 [benzene] + CCCCCCCCCCCCCC[P+](CCCCCC)(CCCCCC)CCCCCC.N#CC(=C=[N-])C#N |
| 3.09 ± 0.21 | 3.1 ± 0.21 | 3.1 ± 0.21 | 3.1 ± 0.21 | 3.1 ± 0.21 | CCCCCCCCCC [decane] + CCCCCCCCCCCCCC[P+](CCCCCC)(CCCCCC)CCCCCC.N#CC(=C=[N-])C#N |
| 0.906 ± 0.057 | 0.922 ± 0.058 | 0.938 ± 0.059 | 0.958 ± 0.06 | 0.973 ± 0.061 | C1=CCCCC1 [cyclohexene] + CCCCCCCCCCCCCC[P+](CCCCCC)(CCCCCC)CCCCCC.N#CC(=C=[N-])C#N |
| 0.938 ± 0.059 | 0.982 ± 0.062 | 1.03 ± 0.06 | 1.07 ± 0.07 | 1.11 ± 0.07 | C#CCCCCC [1-heptyne] + CCCCCCCCCCCCCC[P+](CCCCCC)(CCCCCC)CCCCCC.N#CC(=C=[N-])C#N |
| 0.492 ± 0.037 | 0.503 ± 0.038 | 0.513 ± 0.038 | 0.526 ± 0.039 | 0.537 ± 0.039 | CC(C)(C)O [2-methylpropan-2-ol] + CCCCCCCCCCCCCC[P+](CCCCCC)(CCCCCC)CCCCCC.N#CC(=C=[N-])C#N |
| 0.381 ± 0.033 | 0.4 ± 0.034 | 0.417 ± 0.035 | 0.436 ± 0.035 | 0.453 ± 0.036 | C1CCOC1 [tetrahydrofuran] + CCCCCCCCCCCCCC[P+](CCCCCC)(CCCCCC)CCCCCC.N#CC(=C=[N-])C#N |
| 0.653 ± 0.045 | 0.678 ± 0.046 | 0.699 ± 0.047 | 0.724 ± 0.048 | 0.746 ± 0.049 | CCOC(C)=O [ethyl acetate] + CCCCCCCCCCCCCC[P+](CCCCCC)(CCCCCC)CCCCCC.N#CC(=C=[N-])C#N |
| 0.701 ± 0.047 | 0.729 ± 0.048 | 0.756 ± 0.05 | 0.783 ± 0.051 | 0.805 ± 0.052 | CCc1ccccc1 [ethylbenzene] + CCCCCCCCCCCCCC[P+](CCCCCC)(CCCCCC)CCCCCC.N#CC(=C=[N-])C#N |
| 0.41 ± 0.034 | 0.429 ± 0.035 | 0.445 ± 0.036 | 0.461 ± 0.036 | 0.478 ± 0.037 | c1ccsc1 [thiophene] + CCCCCCCCCCCCCC[P+](CCCCCC)(CCCCCC)CCCCCC.N#CC(=C=[N-])C#N |
| 0.412 ± 0.034 | 0.418 ± 0.035 | 0.423 ± 0.035 | 0.429 ± 0.035 | 0.434 ± 0.035 | CC(C)CO [2-methyl-1-propanol] + CCCCCCCCCCCCCC[P+](CCCCCC)(CCCCCC)CCCCCC.N#CC(=C=[N-])C#N |
| 1.32 ± 0.09 | 1.33 ± 0.09 | 1.35 ± 0.09 | 1.36 ± 0.09 | 1.38 ± 0.09 | CC1CCCCC1 [methylcyclohexane] + CCCCCCCCCCCCCC[P+](CCCCCC)(CCCCCC)CCCCCC.N#CC(=C=[N-])C#N |
| 0.39 ± 0.034 | 0.399 ± 0.034 | 0.408 ± 0.034 | 0.417 ± 0.035 | 0.424 ± 0.035 | CO [methanol] + CCCCCCCCCCCCCC[P+](CCCCCC)(CCCCCC)CCCCCC.N#CC(=C=[N-])C#N |
| 2.66 ± 0.18 | 2.67 ± 0.18 | 2.69 ± 0.18 | 2.7 ± 0.18 | 2.71 ± 0.18 | CCCCCCCCC [nonane] + CCCCCCCCCCCCCC[P+](CCCCCC)(CCCCCC)CCCCCC.N#CC(=C=[N-])C#N |
|  | 0.668 ± 0.045 | 0.669 ± 0.045 | 0.671 ± 0.045 | 0.672 ± 0.046 | CC#N [acetonitrile] + CCCCCCCCCCCCCC[P+](CCCCCC)(CCCCCC)CCCCCC.N#CC(=C=[N-])C#N |
| 1.14 ± 0.07 | 1.15 ± 0.07 | 1.16 ± 0.07 | 1.17 ± 0.07 | 1.18 ± 0.08 | C1CCCCC1 [cyclohexane] + CCCCCCCCCCCCCC[P+](CCCCCC)(CCCCCC)CCCCCC.N#CC(=C=[N-])C#N |
| 0.76 ± 0.05 | 0.797 ± 0.052 | 0.832 ± 0.054 | 0.863 ± 0.055 | 0.893 ± 0.057 | C#CCCC [1-pentyne] + CCCCCCCCCCCCCC[P+](CCCCCC)(CCCCCC)CCCCCC.N#CC(=C=[N-])C#N |

| Structure (SMILES) | activity coefficient (328.15 K) | activity coefficient (338.15 K) | activity coefficient (348.15 K) | activity coefficient (358.15 K) | activity coefficient (368.15 K) |
| --- | --- | --- | --- | --- | --- |
| Cc1ccccc1C [1,2-dimethylbenzene] + CCCCCCCCCCCCCC[P+](CCCCCC)(CCCCCC)CCCCCC.N#CC(=C=[N-])C#N | 0.646 ± 0.044 | 0.677 ± 0.046 | 0.706 ± 0.047 | 0.734 ± 0.049 | 0.76 ± 0.05 |
| CCOCC [diethyl ether] + CCCCCCCCCCCCCC[P+](CCCCCC)(CCCCCC)CCCCCC.N#CC(=C=[N-])C#N | 0.943 ± 0.059 | 0.981 ± 0.062 | 1.01 ± 0.06 | 1.05 ± 0.07 | 1.08 ± 0.07 |
| Cc1cccc(C)c1 [1,3-dimethylbenzene] + CCCCCCCCCCCCCC[P+](CCCCCC)(CCCCCC)CCCCCC.N#CC(=C=[N-])C#N | 0.713 ± 0.048 | 0.74 ± 0.049 | 0.77 ± 0.05 | 0.8 ± 0.052 | 0.826 ± 0.053 |
| CCC[N+](=O)[O-] [1-nitropropane] + CCCCCCCCCCCCCC[P+](CCCCCC)(CCCCCC)CCCCCC.N#CC(=C=[N-])C#N |  | 0.557 ± 0.04 | 0.566 ± 0.041 | 0.577 ± 0.041 | 0.585 ± 0.041 |
| Cc1ccccc1 [toluene] + CCCCCCCCCCCCCC[P+](CCCCCC)(CCCCCC)CCCCCC.N#CC(=C=[N-])C#N | 0.558 ± 0.04 | 0.585 ± 0.041 | 0.611 ± 0.043 | 0.635 ± 0.044 | 0.656 ± 0.045 |
| CC(C)=O [acetone] + CCCCCCCCCCCCCC[P+](CCCCCC)(CCCCCC)CCCCCC.N#CC(=C=[N-])C#N | 0.454 ± 0.036 | 0.466 ± 0.036 | 0.477 ± 0.037 | 0.491 ± 0.037 | 0.503 ± 0.038 |
| Cc1ccc(C)cc1 [1,4-dimethylbenzene] + CCCCCCCCCCCCCC[P+](CCCCCC)(CCCCCC)CCCCCC.N#CC(=C=[N-])C#N | 0.71 ± 0.047 | 0.742 ± 0.049 | 0.773 ± 0.051 | 0.804 ± 0.052 | 0.83 ± 0.053 |
